“And” between values parts separate entries of the source, which are not always exact repeats. Identical values can stand only once.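 48-hour exposure; five concentrations; linearly interpolated endpoints. Abbreviation: GI50, concentration required for 50% inhibition of growth. TGI is the concentration that stops growth completely.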
Key:
Experiment in all cases: NCI-60 cell line screen, 48 h
HCT-116 colon = system: HCT-116 colon
NCI-H226 lung = system: NCI-H226 lung
IGROV1 ovarian = system: IGROV1 ovarian
SF-539 CNS = system: SF-539 CNS
MDA-MB-231 breast = system: MDA-MB-231 breast
SK-OV-3 ovarian = system: SK-OV-3 ovarian
A498 renal = system: A498 renal
RXF 393 renal = system: RXF 393 renal
MDA-MB-435 = system: MDA-MB-435
OVCAR-4 ovarian = system: OVCAR-4 ovarian

| SMILES | TGI (HCT-116 colon) [µM] | TGI (NCI-H226 lung) | TGI (IGROV1 ovarian) | TGI (SF-539 CNS) | TGI (MDA-MB-231 breast) [µM] | TGI (SK-OV-3 ovarian) | TGI (A498 renal) [µM] | TGI (RXF 393 renal) [µM] | TGI (MDA-MB-435) [µM] | TGI (OVCAR-4 ovarian) [µM] | GI50 (HCT-116 colon) [µM] | GI50 (NCI-H226 lung) [µM] | GI50 (IGROV1 ovarian) [µM] | GI50 (SK-OV-3 ovarian) [µM] |
| --- | --- | --- | --- | --- | --- | --- | --- | --- | --- | --- | --- | --- | --- | --- |
| O=C1NC(=S)N(c2ccccc2)C1=O | > 100 | > 100 µM | > 100 µM | > 100 µM | > 100 | > 100 µM | > 100 | > 100 | > 100 | > 100 |  |  |  |  |
| CSCCC(NC(=O)Cc1ccc(C(=O)c2ccccc2)cc1)C(=O)O (centres undefined) | > 100 | > 100 µM | > 100 µM | > 100 µM | > 100 | > 100 µM | > 100 | > 100 | > 100 | > 100 |  |  |  |  |
| COc1ccc(/C=C2\CN(C)C/C(=C\c3ccc(OC)c(OC)c3OC)C2=O)c(OC)c1OC | 0.196 | 2.49 µM | 1.07 µM | 0.311 µM | 0.488 | 1.89 µM | 0.313 | 0.342 | 0.0541 | 1.13 |  |  |  |  |
| Cc1nc(-c2ccc(N=Cc3ccc(N(CCOS(C)(=O)=O)CCOS(C)(=O)=O)cc3C)cc2)cs1 | > 100 | 28.3 µM | > 100 µM | 8.84 µM | > 100 | > 100 µM | 11.4 | 53.9 | > 100 | > 100 |  |  |  |  |
| Cc1ccc2c(=O)cc(-c3ccc(-c4ccccc4)s3)[nH]c2n1 | > 100 | > 100 µM | > 100 µM | 36.6 µM | > 100 | > 100 µM | 72.7 | > 100 | > 100 | > 100 |  |  |  |  |
| CC(C)[C@@H]1ON1C(C)c1ccccc1 (some centres undefined) | > 100 | > 100 µM | > 100 µM | > 100 µM | > 100 | > 100 µM | > 100 | > 100 | > 100 | > 100 |  |  |  |  |
| CCOc1cc(NC(C)=O)ccc1C(=O)NN1C(=O)C(Cl)C1c1ccco1 (centres undefined) | 49.3 | > 100 µM | 28.8 µM | 38 µM | 31.1 | 38.2 µM | 30.8 | 29 | 32.3 | 33.3 |  |  |  |  |
| OC(c1ccc(-c2ccccc2)cc1)C(F)(F)c1nc2ccccc2o1 (centres undefined) | > 100 | > 100 µM | > 100 µM | > 72.3 µM | > 96.6 | > 100 µM | > 41.2 | 49.5 | > 100 | 50.4 |  |  |  |  |
| COc1nc(N)c(N=CC(OC(C)=O)C(OC(C)=O)C(COC(C)=O)OC(C)=O)c(=O)n1C (centres undefined) | > 100 | > 100 µM | > 100 µM | > 100 µM | > 100 | > 100 µM | > 100 | > 100 | > 100 | > 100 |  |  |  |  |
| C/C1=C\[C@@H](O)C(=O)/C=C/C=C\c2csc(n2)[C@@H](C)NC(=O)C[C@@]2(CC1)S(=O)SC(=O)[C@]2(C)O (some centres undefined) | 0.0259 | 0.558 µM and 0.327 µM | 0.552 µM and 0.23 µM | 0.0495 µM and 0.023 µM | 0.265 | 0.472 µM and 2.74 µM | 0.0272 | 0.0331 | 0.0562 | 0.0793 | 0.0045 | 0.0254 | 0.0237 | 0.181 |
| COc1cccc(N2C(=O)C3c4[nH]c5ccc(C)cc5c4C4CCC(C(C)(C)C)CC4C3C2=O)c1 (centres undefined) | 4.75 | 8.78 µM | > 10 µM | 7.41 µM | > 10 | > 10 µM | > 10 | 9.94 | > 10 | > 10 |  |  |  |  |
| Cc1cc(NCCCCCCCNc2cc(C)nc3cc([N+](=O)[O-])ccc23)c2ccc([N+](=O)[O-])cc2n1 | 3.56 | 37.4 µM | 37.1 µM | 39.5 µM | 6.58 | 49.3 µM | 30.4 | 22.9 | 39 | 4.31 |  |  |  |  |
| FC(F)(F)c1ccc2nc(Sc3ccccn3)cnc2c1 | > 100 | 60.2 µM | > 100 µM | 35.9 µM | > 100 | > 100 µM | 54.1 | 55.5 | > 100 | > 100 |  |  |  |  |
| COC(=O)c1c(OC(C)=O)ccc2c1c1c(OC(C)=O)c3ccccc3c(OC(C)=O)c1n2Cc1ccccc1 | 11.5 | > 50 µM | 19.7 µM | 4.04 µM | 37.2 | 19.5 µM | 43.8 | > 50 | 27.9 | 29.6 |  |  |  |  |
| Cc1ccc(/C(O)=C/C(=O)C(=O)NN=C(c2ccccc2)c2ccccc2)cc1 | > 100 | > 100 µM | > 100 µM | > 100 µM | > 100 | > 100 µM | > 100 | > 100 | > 100 | > 100 |  |  |  |  |
| Cc1ccc(/C=C2\CCCC(CN3CCCCC3)C2=O)cc1 (centres undefined) | 3.26 | 5.99 µM | 3.72 µM | 15.6 µM | 3.34 | 30.1 µM | 26.1 | 3.15 | 3.81 | 3.62 |  |  |  |  |

| SMILES | TGI (HCT-116 colon) [µM] | TGI (NCI-H226 lung) | TGI (IGROV1 ovarian) | TGI (SF-539 CNS) | TGI (MDA-MB-231 breast) [µM] | TGI (SK-OV-3 ovarian) | TGI (A498 renal) [µM] | TGI (RXF 393 renal) [µM] | TGI (MDA-MB-435) [µM] | TGI (OVCAR-4 ovarian) [µM] | GI50 (HCT-116 colon) [µM] | GI50 (NCI-H226 lung) [µM] | GI50 (IGROV1 ovarian) [µM] | GI50 (SK-OV-3 ovarian) [µM] |
| --- | --- | --- | --- | --- | --- | --- | --- | --- | --- | --- | --- | --- | --- | --- |
| CC[C@@H](/C=C\CCC(=O)C[C@H](O)CCC=C(C)C)O[Si](C(C)C)(C(C)C)C(C)C | > 100 | > 100 µM | > 100 µM | > 100 µM | > 100 | > 100 µM | > 100 | > 100 | > 100 | > 100 |  |  |  |  |
| c1ccc(CSCCc2ccncc2)cc1 | > 100 | > 100 µM | > 100 µM | > 100 µM | > 100 | > 100 µM | > 100 | > 100 | > 100 | > 100 |  |  |  |  |
| CCOP(=O)(OCC)C(C)(CC)NC (centres undefined) | > 100 | > 100 µM | > 100 µM | > 100 µM | > 100 | > 100 µM | > 100 | > 100 | > 100 | > 100 |  |  |  |  |
| CC1=NN(C(=O)CSc2nc3ccc(I)cc3c(=O)n2Cc2ccccc2)C(=O)C1 | > 100 | > 100 µM | 65.4 µM | > 100 µM | > 100 | 77 µM | 83.7 | 66.2 | 75.2 | 87.8 |  |  |  |  |
| CNc1ccc(N)cc1C(=O)N1CCC[C@H]1CO | > 100 | > 100 µM | > 100 µM | > 100 µM | > 100 | > 100 µM | > 100 | > 100 | > 100 | > 100 |  |  |  |  |
| CCC(c1c[nH]c2ccc(Br)cc12)c1c[nH]c2ccc(Br)cc12 | 15.1 | 44 µM | 19 µM | 28.6 µM | 25.4 | 24.1 µM | 13.3 | 7.21 | 11 | 8.11 |  |  |  |  |
| CC(C)(C)c1cc(C2COC(c3cc(C(C)(C)C)c(O)c(C(C)(C)C)c3)CO2)cc(C(C)(C)C)c1O (centres undefined) | > 100 | > 100 µM | > 100 µM | > 100 µM | > 100 | > 100 µM | > 100 | > 100 | > 100 | > 100 |  |  |  |  |
| Brc1ccc(-c2cn3ccncc3n2)cc1 | > 100 | > 100 µM | > 100 µM | > 100 µM | > 100 | > 100 µM | > 100 | > 100 | > 100 | > 100 |  |  |  |  |
| COc1ccc2c(c1)CCN1CCc3cc(OC)c(OC)cc3CC21 (centres undefined) | > 100 | > 100 µM | > 10 µM | > 100 µM | > 100 | > 100 µM | > 100 | > 100 | > 100 | > 100 |  |  |  |  |
| CCN(CC)CCNCc1cc(Cl)cc2c1OCOC2 | > 10 | > 10 µM | > 10 µM | > 10 µM | > 10 | > 10 µM | > 10 | > 10 | > 10 | > 10 |  |  |  |  |
| O=c1onc2c3ccccc3ncn12 | > 100 | > 100 µM | > 100 µM | > 100 µM | > 100 | > 100 µM | > 100 | > 100 | > 100 | > 100 |  |  |  |  |
| C[C@H]1C=C2[C@@H]3CC(C)(C(=O)O)CC[C@]3(C)CC[C@]2(C)[C@]2(C)CC[C@H]3C(C)(C)[C@@H](OC(=O)c4cccc5c(=O)c6ccccc6[nH]c45)CC[C@]3(C)[C@@H]12 (some centres undefined) | > 100 | > 100 µM | > 100 µM | > 100 µM | > 100 | > 100 µM | > 100 | > 100 | > 100 | > 100 |  |  |  |  |
| OC1(c2ccccc2)CSC2=Nc3ccccc3C3CCN1N23 (centres undefined) | 44.1 | > 100 µM | 27.4 µM | 30.8 µM | 31.9 | > 100 µM | 44.7 | 36.9 | 34 | > 100 |  |  |  |  |
| COC(=O)C1=C(OC(=O)c2ccccc2)C(C(=O)OC)[C@]2(O)[C@@H](C(=O)OC)[C@H]1C[C@@H](c1ccccc1)[C@@H]2C(=O)OC (some centres undefined) | 14.2 | 19.2 µM | 21.1 µM | 14.6 µM | 41.4 | 48.3 µM | 64.1 | 19.8 | 10.8 | > 100 |  |  |  |  |
| C/C(=C/CC[C@]1(CO)CC[C@]2(CO)[C@H](CC[C@@H]3[C@@]4(C)CC[C@H](OC5OCC(O)C(O)C5OC5OC(CO)C(O)C(O)C5O)C(C)(C)[C@@H]4CC[C@]32C)[C@H]1O)CO (some centres undefined) | > 100 | > 100 µM | > 100 µM | > 100 µM | > 100 | > 100 µM | > 100 | > 100 | > 100 | > 100 |  |  |  |  |
